Key:
[1] = tested on: TNF-α production in BV2 cell line; assay: Suppressing effect on production of cytokine (ELISA), TNF-α; assay type: cell-based; details: Mus musculus, BV-2, level in medium, LPS + 100 uM of sample, 24 hours
Experimental: Effects of the 2-hydroxybenzoic acid derivatives on production of cytokine in BV2 cell line were evaluated. 24-well plate was inoculated with 1×10^6 cells of BV2 cell line, and treated with both LPS, inflammation-inducing material, and 100 uM of sample (the 2-hydroxybenzoic acid derivative or comparative drug), together. After 24 hours of incubation, culture medium was collected. The levels of cytokines, TNF-α and IL-6, in the medium were evaluated by ELISA method.

[2] = tested on: gastric bleeding caused by alcohol; assay: Alcoholic gastritis; assay type: in vivo, rat; details: pre-treated 1 hour before alcohol
Experimental: FIG. 9 is results showing protecting effect of compound 2 on alcoholic gastritis. A is a picture of normal rat stomach. B is a picture of rat stomach, wherein gastrointestinal bleeding was caused by oral administration of ethanol (4 ml/kg) after 250 g of rat was fasted for 24 hours. C is a picture of rat stomach, wherein rat was pre-treated with compound 21 hour before induction of gastrointestinal bleeding, and stomach was taken out 90 minutes after gastrointestinal bleeding. D is a graph quantifying the degree of stomach injury.
Effect of the 2-hydroxybenzoic acid derivative on alcoholic gastritis was evaluated. 250 g of rat was fasted for 24 hours, and alcohol was orally administered to cause gastric bleeding (B).

NSAID-induced gastritis = assay: Gastritis caused by NSAID (indomethacine); assay type: in vivo, rat; details: indomethacine 6 hour and 12 hour models; given 1 hour before NSAID
Experimental: FIG. 10 is results showing protecting effect of compound 2 on gastritis induced by NSAID. 250 g of rat was fasted for 24 hours, and indomethacin was orally administered to cause gastrointestinal bleeding (A and C). Compound 2 was administered 1 hour before administration of NSAID (B and D), and stomach was taken out 6 hours (A and B) or 12 hours (C and D) after gastrointestinal bleeding.
Effect of the 2-hydroxybenzoic acid derivative on NSAID-induced gastritis was evaluated.

[3] = tested on: IL-1beta gene expression in BV2 cell line; assay: Suppressing effect on gene expression (RT-PCR), IL-1beta; assay type: cell-based; details: Mus musculus, BV-2, 24 h, gene expression vs LPS control, BV2, 24 hours
Experimental: Effects of the 2-hydroxybenzoic acid derivatives on iNOS gene expression in BV2 cell line were evaluated. 100 mm dish was inoculated with 1×10^6 cells of BV2 cell line, and treated with both LPS, inflammation-inducing material, and 1˜100 uM of the 2-hydroxybenzoic acid derivative of the present invention, together, in regular concentration interval. After 24 hours of incubation, RNA was extracted. Extracted RNA was used in reverse transcription and polymerase chain reaction, and expression patterns of TNF-alpha, IL-1beta and iNOS were compared.

[4] = tested on: gastric bleeding induced by 60% EtOH/150 mM HCl; assay: Gastritis induced by alcohol and hydrochloric acid; assay type: in vivo, rat; details: oral
Experimental: FIG. 8 is results showing protecting effect of compound on gastrointestinal bleeding caused by alcohol/hydrochloric acid (EtOH/HCl). A is a picture of normal rat stomach. B is a picture of rat stomach, wherein gastrointestinal bleeding was caused by oral administration of 60% EtOH/150 mM HCl after 200˜250 g of rat was fasted for 24 hours. C is a picture of rat stomach, wherein rat was pre-treated with compound 230 minutes before administration of alcohol/HCl, and stomach was taken out 90 minutes after gastrointestinal bleeding. D is a graph quantifying damaged area to evaluate the degree of stomach injury.
Effect of the 2-hydroxybenzoic acid derivative on gastritis induced by alcohol and hydrochloric acid was evaluated. 200˜250 g of male SD rat was fasted for 24 hours, and 60% EtOH/150 mM HCl was orally administered to induce gastric bleeding (gastric injury). Compound 2 was orally administered according to indicated dose 30 minutes before the gastric bleeding, and stomach was taken out 90 minutes after gastric bleeding to evaluate the degree of gastric injury.

gastric mucous membrane = assay: Safety test about induction of gastric mucous membrane damage; assay type: in vivo; details: oral, up to 1,000 mg/kg, aspirin as control
Experimental: Test samples were orally administered at different doses to evaluate the degree of the gastric mucous membrane damage. Aspirin was used as control.
FIG. 2 is results showing degrees of the gastric mucous membrane damage. Test samples were orally administered at indicated doses. […] Indomethacine, ibuprofen and celecoxib were used as control.
Conventional NSAIDs have side effects causing damages to the gastric mucous membrane. Therefore, it was evaluated whether compound 2 having anti-inflammatory effect causes the gastric damage or not. 30, 100 or 300 mg/kg of aspirin was orally administered as control.

[5] = tested on: brain-blood vessel barrier; assay: Brain-blood vessel barrier protection in APP/PS1 mice (Evans blue); assay type: in vivo, mouse; details: chow from 2 to 5 month-old; compound 2 25 mg/kg/day, ibuprofen 62.5 mg/kg/day
Experimental: Damage of brain blood vessel is well known in Alzheimer's disease. […] of 2% Evans blue dye was administered into blood vessel of 5 month-old APP/PS1 dementia mouse.

[6] = tested on: APP/PS1 transgenic mice behavior; assay: Elevated plus maze test in APP/PS1 mice; assay type: in vivo, mouse; details: 25 mg/kg/day for 7 months, vs chow only
Experimental: APP/PS1 transgenic mice were fed chow alone or containing 25 mg/kg/day of compound 2, for 7 months (3.5˜10.5 months). After administration of 7 months, Elevated plus maze test was performed to evaluate the behavior improvement. Elevated plus maze has two open arms (30 cm×6 cm×0.5 cm) and two closed arms (30 cm×6 cm×15 cm), and also has 6 cm×6 cm of center platform. In Elevated plus maze test, mouse was carefully laid in the center with the head of the mouse toward open arm. The time that the mouse spent in the open arm was recorded for 5 minutes (mean±SEM, n=3-5). *, Significant difference from control (APP/PS1 mouse fed with general chow only), p<0.05 using one-way ANOVA according to Student-Neuman-Keuls' test.

Question: How did the inhibition at 100 µM [1] turn out when `O=C(O)c1cc(NCCc2ccc(C(F)(F)F)cc2)ccc1O` [compound 2, 2-hydroxy-5-[2-(4-trifluoromethyl-phenyl)-ethylamino]-benzoic acid] was run?
Answer: 62.3%

Question: And the gastric bleeding [2]?
Answer: significantly reduced gastric bleeding

Question: And the “protecting effect on stomach” value (NSAID-induced gastritis)?
Answer: excellent protecting effect on stomach

Question: What about the inhibition at 100 µM [3] of the same compound?
Answer: 75.1%

Question: And the “toxicity in EtOH/HCl gastritis test” value [4]?
Answer: did not show any toxicity

Question: What about the “protection against gastric bleeding” value ([4]; 30 minutes before EtOH/HCl, stomach taken out 90 minutes after) of the same compound?
Answer: protected stomach against gastric bleeding induction

Question: And the “gastric mucous membrane damage” value (gastric mucous membrane)?
Answer: did not cause damage to the gastric mucous membrane

Question: What about the “gastric mucous membrane damage” value (gastric mucous membrane; listed as Compound 2) of the same compound?
Answer: did not cause the gastric side effect

Question: What about the “protecting effect on brain-blood vessel barrier” value [5] of the same compound?
Answer: protecting effects on brain-blood vessel barrier were shown

Question: What about the “time spent in the open arm” value [6] of the same compound?
Answer: decreased the time for mouse to stay in the open arm
